Test results reported in ChEMBL document CHEMBL6074620, “Discovery of a triphenylamine-based ligand that targets mitochondrial DNA G-quadruplexes and activates the cGAS-STING immunomodulatory pathway” (Eur J Med Chem, 2024).
The source made the active and inactive calls. No cut-off for these calls is given here.

How the values were obtained:
4T1 [1] = assay: Cytotoxicity against mouse 4T1 cells assessed as reduction in cell viability incubated for 24 hrs by CCK-8 assay; assay type: functional, cell-based; conditions: 4T1, 24 h
Quadruplex DNA [2] = assay: Stabilization of fluorescently labelled G4-quadruplex mt6363 DNA (unknown origin) assessed as effect on thermal stability of DNA structure by measuring change in melting temperature at 1 uM by FRET melting assay; assay type: nucleic-acid assay
4T1 [3] = assay: Induction of apoptosis in mouse 4T1 cells assessed as decrease in caspase-3 level at 5 uM by Western blotting analysis; assay type: functional, cell-based
4T1 [4] = assay: Induction of apoptosis in mouse 4T1 cells assessed as decrease in PARP level at 5 uM by Western blotting analysis; assay type: functional, cell-based
4T1 [5] = assay: Induction of mitochondrial damage DNA in mouse 4T1 cells assessed as reduction in mtDNA by qPCR analysis; assay type: functional, cell-based
Mitochondrial membrane = assay: Disruption of mitochondrial membrane potential in mouse 4T1 cells assessed as decrease red fluorescence at 0 to 5 uM by JC-1 staining based analysis; conditions: dose 0-5 µM
4T1 [6] = assay: Induction of mitochondrial damage in mouse 4T1 cells assessed as increase in ND4 level by qPCR analysis; assay type: functional, cell-based
4T1 [7] = assay: Induction of ROS generation in mouse 4T1 cells assessed as increase green fluorescence by DCFH-DA staining based analysis; assay type: functional, cell-based
4T1 [8] = assay: Induction of ROS generation in mouse 4T1 cells assessed as increase 8-OG level in presence of 8-oxoguanine by DAPI staining based immunofluorescence based analysis; assay type: functional, cell-based
4T1 [9] = assay: Induction of mitochondrial damage in mouse 4T1 cells assessed as disappearance of picogreen incubated for 1 hrs and measured after 24 hrs by immunofluorescence analysis; assay type: functional, cell-based; conditions: time 25.0 hrs
4T1 [10] = assay: Activation of cGAS-STING pathway in mouse 4T1 cells assessed as increase in cGAS expression level by Western blot analysis; assay type: cell-based; conditions: filed as activator, dose <= 5.0 µM
4T1 [11] = assay: Activation of cGAS-STING signaling pathway in mouse 4T1 cells assessed as […] in TBK1 phosphorylation up to 5 uM by Western blot analysis; assay type: cell-based; conditions: filed as activator
4T1 [12] = assay: Activation of cGAS-STING signaling pathway in mouse 4T1 cells assessed as […] in IRF3 phosphorylation up to 5 uM by Western blot analysis; assay type: cell-based; conditions: filed as activator
4T1 [13] = assay: Activation of cGAS-STING signaling pathway in mouse 4T1 cells assessed as increase in TNF-alpha level at 5 uM by qPCR analysis; assay type: cell-based; conditions: filed as activator
4T1 [14] = assay: Induction of ROS generation in mouse 4T1 cells assessed as decrease ROS level at 5 uM in presence of NAC by […] analysis; assay type: functional, cell-based
4T1 [15] = assay: Induction of mitochondrial damage in mouse 4T1 cells assessed as decrease in Dloop2 level at 5 uM in presence of NAC by qPCR analysis; assay type: functional, cell-based
4T1 [16] = assay: Induction of mitochondrial damage in mouse 4T1 cells assessed as decrease in CytB level at 5 uM in presence of NAC by qPCR analysis; assay type: functional, cell-based
4T1 [17] = assay: Antitumor activity against mouse 4T1 cells implanted with female BALB/c mouse assessed as decrease tumor weight at 2.5 mg/kg, sc administered for every 3 days for 2 weeks and measured on day 21; assay type: functional, organism-based; conditions: time 21.0 day
4T1 [18] = assay: Induction of mitochondrial damage in mouse 4T1 cells assessed as decrease in ND4 level at 5 uM in presence of NAC by qPCR analysis; assay type: functional, cell-based
4T1 [19] = assay: Induction of mitochondrial damage in mouse 4T1 cells assessed as decrease in Dloop2 level at 5 uM in presence of DDC by qPCR analysis; assay type: functional, cell-based
4T1 [20] = assay: Induction of mitochondrial damage in mouse 4T1 cells assessed as decrease in CytB level at 5 uM in presence of DDC by qPCR analysis; assay type: functional, cell-based
4T1 [21] = assay: Antitumor activity against mouse 4T1 cells implanted with female BALB/c mouse assessed as decrease tumor volume at 2.5 mg/kg, sc administered for every 3 days for 2 weeks from day 7; assay type: functional, organism-based
[22] = Toxicity in female BALB/c mouse implanted with mouse 4T1 cells assessed as change in heart weight at 2.5 mg/kg, sc measured after 21 days by Hematoxylin-Eosin staining based analysis; assay type: organism-based; conditions: in vivo, 504 h, time 21 day
[23] = Toxicity in female BALB/c mouse implanted with mouse 4T1 cells assessed as change in liver weight at 2.5 mg/kg, sc measured after 21 days by Hematoxylin-Eosin staining based analysis; assay type: organism-based; conditions: in vivo, 504 h, time 21 day
Mus musculus [24] = assay: Immunostimulatory activity in female BALB/c mouse implanted with mouse 4T1 cells assessed as downregulation of M2 macrophages level 2.5 mg/kg, sc by flow cytometry analysis; assay type: functional, organism-based
Mus musculus [25] = assay: Immunostimulatory activity in female BALB/c mouse implanted with mouse 4T1 cells assessed as tumor infiltrating lymphocytes by measuring increase in CD4+ and CD8+T cells at 2.5 mg/kg, sc by immunohistochemistry analysis; assay type: functional, organism-based
[26] = Toxicity in female BALB/c mouse implanted with mouse 4T1 cells assessed as change in body weight at 2.5 mg/kg, iv administered every 3 days for 2 weeks from day 7; assay type: organism-based; conditions: in vivo, 336 h
Quadruplex DNA [27] = assay: Binding affinity to G4-quadruplex mt6363 DNA (unknown origin) at 10 uM by fluorescence based analysis; assay type: nucleic-acid assay
Quadruplex DNA [28] = assay: Binding affinity to G4-quadruplex mt6363 DNA (unknown origin) assessed as melting temperature at 10 uM incubated for 2 hrs by fluorescence based analysis; assay type: nucleic-acid assay
4T1 [29] = assay: Activation of cGAS-STING signaling pathway in mouse 4T1 cells assessed as increase in IFN-beta level up to 5 uM by ELISA analysis; assay type: cell-based; conditions: filed as activator
4T1 [30] = assay: Activation of cGAS-STING signaling pathway in mouse 4T1 cells assessed as increase in IL-6 level up to 5 uM by ELISA analysis; assay type: cell-based; conditions: filed as activator
4T1 [31] = assay: Induction of mouse 4T1 cell maturation assessed as increase in CD80 positive cells by flow cytometric analysis; assay type: functional, cell-based; conditions: dose <= 5.0 µM
4T1 [32] = assay: Induction of mouse 4T1 cell maturation assessed as increase in CD86 positive cells by flow cytometric analysis; assay type: functional, cell-based; conditions: dose <= 5.0 µM
Mus musculus [33] = assay: Immunostimulatory activity in female BALB/c mouse implanted with mouse 4T1 cells assessed as change in CD8+ T cells in spleen at 2.5 mg/kg, sc by flow cytometry; assay type: functional, organism-based
Mus musculus [34] = assay: In-vivo activation of cGAS-STING signaling pathway in female BALB/c mouse assessed as effect on cGAS level in tumor at 2.5 mg/kg, sc by Western blot analysis; assay type: functional, organism-based
Mus musculus [35] = assay: In-vivo activation of cGAS-STING signaling pathway in female BALB/c mouse assessed as STING level in tumor at 2.5 mg/kg, sc by Western blot analysis; assay type: functional, organism-based
Mus musculus [36] = assay: In-vivo activation of cGAS-STING signaling pathway in female BALB/c mouse assessed as TBK1 level in tumor at 2.5 mg/kg, sc by Western blot analysis; assay type: functional, organism-based
Mus musculus [37] = assay: In-vivo activation of cGAS-STING signaling pathway in female BALB/c mouse assessed as increase in IL-6 level at 2.5 mg/kg, sc by ELISA analysis; assay type: functional, organism-based

In the case of COc1ccc(N(c2ccc(/C=C/C3=[N+](C)c4ccc5ccccc5c4C3(C)C)cc2)c2ccc(OC)cc2)cc1.[I-], the IC50 (4T1 [1]) is reported as 1900 nM, the ΔTm (Quadruplex DNA [2]) is reported as 28.5 °C and the Activity (4T1 [3]) is reported as “Active”. For the same compound, the Activity (4T1 [4]) was “Active”, the Activity (4T1 [5]) was “Active” and the Activity (Mitochondrial membrane) was “Active”. The Activity (4T1 [6]) was “Active”, the Activity (4T1 [7]) was “Dose-dependent-effect” and the Activity (4T1 [8]) was “Active”. The Activity (4T1 [9]) was “Active”, the Activity (4T1 [10]) was “Dose-dependent-effect” and the Activity (4T1 [11]) was “Active”. For the same compound, the Activity (4T1 [12]) was “Active”, the Activity (4T1 [13]) was “Active” and the Activity (4T1 [14]) was “Active”. For the same compound, the Activity (4T1 [15]) was “Active”, the Activity (4T1 [16]) was “Active” and the Activity (4T1 [17]) was “Active”. The Activity (4T1 [18]) was “Active”, the Activity (4T1 [19]) was “Active” and the Activity (4T1 [20]) was “Active”. For the same compound, the Activity (4T1 [21]) was “Active”, the Activity [22] was “Non-toxic” and the Activity [23] was “Non-toxic”. For the same compound, the Activity (Mus musculus [24]) was “Active”, the Activity (Mus musculus [25]) was “Active” and the Activity [26] was “Non-toxic”. The Activity (Quadruplex DNA [27]) was “Active”, the Tm (Quadruplex DNA [28]) was 46.2 °C and the Activity (4T1 [29]) was “Active”. For the same compound, the Activity (4T1 [30]) was “Active”, the Activity (4T1 [31]) was “Dose-dependent-effect” and the Activity (4T1 [32]) was “Dose-dependent-effect”. For the same compound, the Activity (Mus musculus [33]) was “Active”, the Activity (Mus musculus [34]) was “Active” and the Activity (Mus musculus [35]) was “Active”. The Activity (Mus musculus [36]) was “Active” and the Activity (Mus musculus [37]) was “Active”.
